pIC50: −log10 of the molar value.
Assays:
[1] = molecular target: T1, LRRK2 kinase (Homo sapiens, UniProt Q5S007); test: Biochemical assay for LRRK2 (coupled pyruvate kinase/lactate dehydrogenase assay); settings: 26.4 nM LRRK2 (residues 970-2528), peptide substrate, 1 mM ATP
T1 construct: purchased Thermo Fisher
In short: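 Recombinant LRRK2 (26.4 nM) with 0.1 mM peptide substrate and 1 mM ATP in Tris pH 7.5/MgCl2 buffer; ADP production coupled via PK/LDH to NADH oxidation, A340 read continuously 6 h at 30 °C. Rates from 2–3 h window converted to % inhibition versus no-compound and reference-inhibitor controls; IC50 fitted.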

[2] = molecular target: T2, ULK2 kinase (Homo sapiens, UniProt Q8IYT8); test: Biochemical assay for ULK2 (coupled pyruvate kinase/lactate dehydrogenase assay); settings: 9.7 nM ULK2 (residues 1-306, GST and His tag), myelin basic protein, 1 mM ATP; read-out: ULK2.2
T2 construct: purchased Eurofins 14-772
Description: Example 132. Biochemical Assay for ULK2 (SEQ. ID NO: 3)
Activity of ULK2 kinase was determined spectroscopically using a coupled pyruvate kinase/lactate dehydrogenase assay that continuously monitors the ATP hydrolysis-dependent oxidation of NADH (e.g., Schindler et al. Science (2000) 289: 1938-1942). Assays were conducted in 384-well plates (100 uL final volume) using 9.7 nM ULK2 (Eurofins CAT #14-772), 0.25 mg/mL myelin basic protein, 1.5 units pyruvate kinase, 2.1 units lactate dehydrogenase, 1 mM phosphoenol pyruvate, 0.28 mM NADH and 1 mM ATP in assay buffer (100 mM Tris, pH 7.5, 15 mM MgCl2, 0.5 mM DTT, 0.1% octyl-glucoside, 0.002% (w/v) BSA, and 0.002% Triton X-100). Inhibition of ULK2 was measured by adding serial diluted test compound (final assay concentration of 1% DMSO). A decrease in absorption at 340 nm was monitored continuously for 6 hours at 30° C. on a multi-mode microplate reader (BioTek). The reaction rate was calculated using the 2-3 h time frame. The reaction rate at each concentration of compound was converted to percent inhibition using controls (i.e. reaction with no test compound and reaction with a known inhibitor) and IC50 values were calculated by fitting a four-parameter sigmoidal curve to the data using Prism (GraphPad software).

[3] = molecular target: T3, ULK1 kinase (Homo sapiens, UniProt O75385); test: Biochemical assay for ULK1.2 (coupled pyruvate kinase/lactate dehydrogenase assay); settings: 19 nM ULK1 (residues 1-314, His tag), myelin basic protein, 1 mM ATP
T3 construct: purchased Eurofins 14-959
T3 sequence (O75385 with tags, fused parts or gaps): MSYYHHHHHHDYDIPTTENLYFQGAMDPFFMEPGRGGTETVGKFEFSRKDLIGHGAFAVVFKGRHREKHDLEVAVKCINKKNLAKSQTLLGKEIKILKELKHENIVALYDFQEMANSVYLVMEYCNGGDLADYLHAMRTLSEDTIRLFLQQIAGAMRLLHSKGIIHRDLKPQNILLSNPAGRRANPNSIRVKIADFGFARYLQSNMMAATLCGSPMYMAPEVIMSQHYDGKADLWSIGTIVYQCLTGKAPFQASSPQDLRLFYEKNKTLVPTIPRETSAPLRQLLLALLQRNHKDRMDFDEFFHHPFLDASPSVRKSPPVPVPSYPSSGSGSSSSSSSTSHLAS
Description: Biochemical Assay for ULK1.2 (SEQ. ID NO: 1)
Inhibition of ULK1 was measured by adding serial diluted test compound (final assay concentration of 1% DMSO). A decrease in absorption at 340 nm was monitored continuously for 6 hours at 30° C. on a multi-mode microplate reader (BioTek). The reaction rate was calculated using the 2-3 h time frame. The reaction rate at each concentration of compound was converted to percent inhibition using controls (i.e. reaction with no test compound and reaction with a known inhibitor) and IC50 values were calculated by fitting a four-parameter sigmoidal curve to the data using Prism (GraphPad software).

[4] = test system: ULK kinase; test: pATG13 levels of mutant KRas A549 cells after treatment with ULK inhibitors in combination with trametinib (ELISA); type: cell-based, human; settings: A549 (KRAS mutant) lung cancer cells, 250 nM trametinib, overnight, pS318-ATG13
In short: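 Lysates with phosphatase/protease inhibitors assayed by pATG13 ELISA, A450 minus A540 background and blank-corrected. % ATG13 phosphorylation versus DMSO controls fitted to IC50.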

[5] = test system: ULK kinase; test: pATG13 levels of mutant KRas HCT-116 cells after treatment with ULK inhibitors in combination with trametinib (ELISA); type: cell-based, human; settings: HCT-116 colon cancer cells, 250 nM trametinib, overnight, pS318-ATG13
Description: The following day, 10 μL of media containing trametinib or DMSO as a control was added to wells. […] A dose response of a test compound (0.6 μL per well) was added. DMSO (0.6 μL) was added to control wells. The plate was briefly shaken to mix wells and then incubated at 37° C. overnight. The next day, the media was aspirated and cells were washed with Dulbecco's Phosphate Buffered Saline (Gibco). Cells were lysed using MPER lysis buffer (Pierce, Rockford, Ill.) containing Halt Phosphatase and Protease Inhibitors (Pierce, Rockford, Ill.) and Phosphatase inhibitor cocktail 2 (Sigma, St. Louis, Mo.) at 4° C. for 10 minutes with shaking.
(§1) Plate wells were washed with ELISA wash buffer. Cell lysate was added to wells and incubated at room temperature for 2 hours. Plate wells were washed with ELISA wash buffer. […] Plate wells were washed with ELISA wash buffer. […] Plate wells were washed with ELISA wash buffer. […] The reaction was stopped with 2N Sulfuric Acid. The plate was analyzed at on a plate reader measuring absorbance at 450 nm and 540 nm (background). Signal was calculated by first subtracting the background absorbance at 540 nm from the absorbance at 450 nm for each well. Next, the background corrected absorbance at 450 nm from blank wells was subtracted from test wells. Data was compared to control wells to determine % ATG13 phosphorylation. GraphPad Prism was used to calculate IC50 values.

[6] = test system: ULK kinase; test: pATG13 levels of mutant KRas MiaPaCa-2 cells after treatment with ULK inhibitors in combination with trametinib (ELISA); type: cell-based, human; settings: MiaPaCa-2 pancreatic cancer cells, 250 nM trametinib, overnight, pS318-ATG13
In short: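 MiaPaCa-2 cells in DMEM with 10% FBS and 2.5% horse serum were pretreated with trametinib or DMSO, then given a test-compound dose response overnight at 37° C. Lysates were assayed for phospho-ATG13 by ELISA (A450 minus A540 background, blank-corrected). % phosphorylation was calculated relative to controls and fitted to IC50.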

[7] = molecular target: T4, ULK1 kinase (Homo sapiens, UniProt O75385, E37A/K38A); test: Biochemical assay for ULK1.3 (coupled pyruvate kinase/lactate dehydrogenase assay, peptide substrate); settings: 0.1 nM ULK1 (residues 1-283), 1 mM ATP
T4 construct: purchased Beryllium
T4 sequence (O75385 1-283 E37A/K38A): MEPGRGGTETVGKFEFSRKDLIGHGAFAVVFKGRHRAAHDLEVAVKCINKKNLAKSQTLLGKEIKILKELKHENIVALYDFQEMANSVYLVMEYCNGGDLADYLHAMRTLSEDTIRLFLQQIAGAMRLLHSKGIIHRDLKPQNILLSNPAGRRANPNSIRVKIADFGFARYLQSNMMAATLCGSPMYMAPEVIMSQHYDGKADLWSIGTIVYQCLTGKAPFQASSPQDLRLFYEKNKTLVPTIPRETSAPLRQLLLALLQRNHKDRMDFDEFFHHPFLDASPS
In short: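 ULK1.3 activity was followed by continuous decrease in 340 nm absorbance over 6 h at 30 °C with 1% DMSO final. Rates were taken from the 2–3 h window and converted to percent inhibition against no-compound and known-inhibitor controls. IC50 values came from curve fitting.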

[8] = test system: ULK kinase; test: pATG13 levels of mutant BRAF A375 cells after treatment with ULK inhibitors in combination with trametinib (ELISA); type: cell-based, human; settings: A375 malignant melanoma cells (mutant BRAF), 250 nM trametinib, overnight, pS318-ATG13
Description: A375 human malignant melanoma cancer cells (20000 cells/well) were added to a 96-well tissue-culture treated plate in 100 μL of pre-warmed DMEM medium supplemented with 10% characterized fetal bovine serum (Invitrogen, Carlsbad, Calif.), 100 units/mL penicillin G, and 100 μg/mL streptomycin and allowed to grow overnight at 37° C., 5% CO2, and 95% humidity. The following day, 100 μL of media containing trametinib or DMSO as a control was added to wells. […] A dose response of a test compound (0.5 μL per well) was added. DMSO (0.5 μL) was added to control wells. The plate was briefly shaken to mix wells and then incubated at 37° C. overnight. The next day, the media was aspirated and cells were washed with Dulbecco's Phosphate Buffered Saline (Gibco). Cells were lysed using MPER lysis buffer (Pierce, Rockford, Ill.) containing Halt Phosphatase and Protease Inhibitors (Pierce, Rockford, Ill.) and Phosphatase inhibitor cocktail 2 (Sigma, St. Louis, Mo.) at 4° C. for 10 minutes with shaking.
as §1

T1 sequence (Q5S007 with tags, fused parts or gaps): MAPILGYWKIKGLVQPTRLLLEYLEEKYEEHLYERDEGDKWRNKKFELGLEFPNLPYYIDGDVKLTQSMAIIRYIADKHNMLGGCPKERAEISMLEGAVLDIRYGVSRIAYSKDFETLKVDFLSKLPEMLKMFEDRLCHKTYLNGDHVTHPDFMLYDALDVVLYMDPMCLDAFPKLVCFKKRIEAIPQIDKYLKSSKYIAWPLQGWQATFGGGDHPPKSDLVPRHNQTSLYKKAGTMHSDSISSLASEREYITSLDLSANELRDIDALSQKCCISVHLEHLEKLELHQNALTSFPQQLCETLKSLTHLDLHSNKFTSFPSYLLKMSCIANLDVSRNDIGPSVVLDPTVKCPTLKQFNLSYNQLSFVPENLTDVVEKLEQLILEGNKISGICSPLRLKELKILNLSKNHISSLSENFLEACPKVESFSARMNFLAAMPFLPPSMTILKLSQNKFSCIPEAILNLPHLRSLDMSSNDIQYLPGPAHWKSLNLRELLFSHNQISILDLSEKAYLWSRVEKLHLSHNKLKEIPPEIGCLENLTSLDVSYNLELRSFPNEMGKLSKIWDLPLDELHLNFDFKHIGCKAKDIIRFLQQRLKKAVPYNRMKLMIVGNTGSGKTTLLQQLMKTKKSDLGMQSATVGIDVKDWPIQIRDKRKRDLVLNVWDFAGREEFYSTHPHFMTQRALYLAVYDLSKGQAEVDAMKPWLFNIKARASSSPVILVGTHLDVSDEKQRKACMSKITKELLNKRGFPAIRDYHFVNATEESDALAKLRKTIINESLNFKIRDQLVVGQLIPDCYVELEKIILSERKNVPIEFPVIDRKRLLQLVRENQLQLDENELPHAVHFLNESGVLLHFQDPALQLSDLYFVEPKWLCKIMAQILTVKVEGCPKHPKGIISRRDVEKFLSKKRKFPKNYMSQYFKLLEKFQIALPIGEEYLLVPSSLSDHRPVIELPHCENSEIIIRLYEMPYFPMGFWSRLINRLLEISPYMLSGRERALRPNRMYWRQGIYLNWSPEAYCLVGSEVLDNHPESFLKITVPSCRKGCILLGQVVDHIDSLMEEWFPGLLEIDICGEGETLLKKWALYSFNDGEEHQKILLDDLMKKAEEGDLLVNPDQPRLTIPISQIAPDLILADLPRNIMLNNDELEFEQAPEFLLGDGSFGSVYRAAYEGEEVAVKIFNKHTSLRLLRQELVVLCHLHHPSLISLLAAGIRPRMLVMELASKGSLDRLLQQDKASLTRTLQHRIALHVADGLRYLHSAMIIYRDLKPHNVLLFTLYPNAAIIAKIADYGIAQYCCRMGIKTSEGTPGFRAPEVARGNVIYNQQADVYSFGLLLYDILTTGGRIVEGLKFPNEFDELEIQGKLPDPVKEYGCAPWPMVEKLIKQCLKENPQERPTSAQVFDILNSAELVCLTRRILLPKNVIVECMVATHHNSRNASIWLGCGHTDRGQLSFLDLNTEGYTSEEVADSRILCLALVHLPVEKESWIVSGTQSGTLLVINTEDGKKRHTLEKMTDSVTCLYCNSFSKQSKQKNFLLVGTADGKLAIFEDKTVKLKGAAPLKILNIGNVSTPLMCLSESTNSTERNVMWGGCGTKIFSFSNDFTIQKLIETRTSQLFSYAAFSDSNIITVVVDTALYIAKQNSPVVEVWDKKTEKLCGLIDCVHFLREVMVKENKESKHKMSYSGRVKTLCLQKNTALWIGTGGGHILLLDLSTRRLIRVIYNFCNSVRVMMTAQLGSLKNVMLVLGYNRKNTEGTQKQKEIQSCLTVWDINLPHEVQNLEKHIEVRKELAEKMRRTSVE
T2 sequence (Q8IYT8 with tags, fused parts or gaps): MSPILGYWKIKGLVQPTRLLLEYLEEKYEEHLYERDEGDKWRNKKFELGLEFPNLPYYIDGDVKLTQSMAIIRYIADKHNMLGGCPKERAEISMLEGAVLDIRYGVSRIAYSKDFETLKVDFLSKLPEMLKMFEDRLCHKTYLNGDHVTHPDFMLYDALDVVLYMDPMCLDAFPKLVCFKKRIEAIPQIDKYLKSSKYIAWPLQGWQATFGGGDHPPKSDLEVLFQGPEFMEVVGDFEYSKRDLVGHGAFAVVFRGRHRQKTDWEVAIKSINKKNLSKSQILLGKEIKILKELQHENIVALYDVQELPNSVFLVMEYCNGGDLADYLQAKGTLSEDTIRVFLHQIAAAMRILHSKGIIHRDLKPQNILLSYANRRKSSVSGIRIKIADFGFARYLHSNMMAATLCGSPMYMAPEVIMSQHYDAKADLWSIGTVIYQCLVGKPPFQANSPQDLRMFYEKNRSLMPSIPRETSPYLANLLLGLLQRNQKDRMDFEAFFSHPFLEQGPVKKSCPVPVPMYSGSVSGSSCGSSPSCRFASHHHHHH

| Compound | pIC50 [1] | pIC50 [2] | pIC50 [3] | pIC50 [4] | pIC50 [5] | pIC50 [6] | pIC50 [7] | pIC50 [8] |
| --- | --- | --- | --- | --- | --- | --- | --- | --- |
| Cc1cc(N2CCN(CCF)CC2)ccc1Nc1ncc(C(F)(F)F)c(NCCCN2CCCCC2=O)n1 [Example 18] | 7.00 to 9.00 | 7.00 to 7.60 | 6.30 to 7.00 |  |  |  |  |  |
| Cc1cc(N2CCN(C)CC2)ccc1Nc1ncc(C(F)(F)F)c(NCCCN2CCCCC2=O)n1 [Example 20] |  | 7.00 to 7.60 | 7.60 to 9.00 | 6.22 to 6.52 | 6.52 to 7.00 | 6.52 to 7.00 |  |  |
| Cc1cc(N2CCNCC2)ccc1Nc1ncc(C(F)(F)F)c(NCCCN2CCCOC2=O)n1 [Example 37] | 6.52 to 7.00 |  |  | 6.52 to 7.00 |  | 7.00 to 8.00 | 7.60 to 9.00 | 6.22 to 6.52 |
| CCc1cc(N2CCOCC2)ccc1Nc1ncc(C(F)(F)F)c(NCCCN2CCCOCC2=O)n1 [Example 50] | 7.00 to 9.00 | < 6.30 | 6.30 to 7.00 | < 6.22 |  | < 6.22 |  |  |
| O=C1COCCCN1CCCNc1nc(Nc2ccc(N3CCOCC3)cc2C2CC2)ncc1C(F)(F)F [Example 51] | 7.00 to 9.00 | < 6.30 | 6.30 to 7.00 |  |  |  |  |  |
| CCc1cc(N2CCN(C)CC2)ccc1Nc1ncc(C(F)(F)F)c(NCCCN2CCCOCC2=O)n1 [Example 54] |  | 7.00 to 7.60 | 7.60 to 9.00 | 7.00 to 8.00 | 7.00 to 8.00 | 7.00 to 8.00 |  |  |
| CCc1cc(N2CCN(C)CC2)ccc1Nc1ncc(Cl)c(NCCCN2CCCOCC2=O)n1 [Example 58] | 6.52 to 7.00 | < 6.30 | 6.30 to 7.00 | 6.52 to 7.00 | 7.00 to 8.00 | 7.00 to 8.00 |  |  |
| CCc1cc(N2CC3CCC(C2)N3C)ccc1Nc1ncc(C(F)(F)F)c(NCCCN2CCCOC2=O)n1 [Example 69] | 6.22 to 6.52 |  |  | 7.00 to 8.00 | 7.00 to 8.00 | 7.00 to 8.00 | 7.60 to 9.00 |  |
| Cc1cc(N2CCNCC2)ccc1Nc1ncc(C(F)(F)F)c(NCCCN2CCOCCC2=O)n1 [Example 75] |  |  |  | 6.52 to 7.00 | 6.52 to 7.00 | 7.00 to 8.00 | 7.60 to 9.00 | 6.52 to 7.00 |
| O=C1CCOCCN1CCCNc1nc(Nc2ccc(N3CCNCC3)cc2C2CC2)ncc1C(F)(F)F [Example 85] |  |  |  | 7.00 to 8.00 | 6.52 to 7.00 | 7.00 to 8.00 | 7.60 to 9.00 | 6.52 to 7.00 |
| Cc1cc(N2CCOCC2)ncc1Nc1ncc(C(F)(F)F)c(NCCCN2CCCCC2=O)n1 [Example 90] | 6.22 to 6.52 | < 6.30 | < 6.30 |  |  |  |  |  |
| Cc1cc(N2CCN(C)CC2)ncc1Nc1ncc(C(F)(F)F)c(NCCCN2CCCCC2=O)n1 [Example 91] |  | 6.30 to 7.00 | 7.00 to 7.60 | 6.52 to 7.00 |  | < 6.22 | 7.00 to 7.60 |  |
| CCc1cc(N2CCN3CCC[C@@H]3C2)ccc1Nc1ncc(C(F)(F)F)c(NCCCN2CCOCCC2=O)n1 [Example 105] | 7.00 to 9.00 |  |  | 7.00 to 8.00 | 7.00 to 8.00 | 7.00 to 8.00 | 7.60 to 9.00 |  |
| CCc1cc(N2CCN3CCC[C@@H]3C2)ccc1Nc1ncc(C(F)(F)F)c(NCCCN2CCCOC2=O)n1 [Example 106] | 6.52 to 7.00 |  |  | 7.00 to 8.00 | 7.00 to 8.00 | 7.00 to 8.00 | 7.60 to 9.00 |  |
| Cc1cc(-c2cnn(C)c2)ccc1Nc1ncc(C(F)(F)F)c(NCCCN2CCCCC2=O)n1 [Example 108] | 7.00 to 9.00 | < 6.30 | < 6.30 |  |  |  |  |  |
| Cc1cc(-c2cn(C)cn2)ccc1Nc1ncc(C(F)(F)F)c(NCCCN2CCOCCC2=O)n1 [Example 109] | 7.00 to 9.00 | < 6.30 | < 6.30 | < 6.22 |  |  |  |  |
